How the values were obtained:
[1] = system: Colo-205 xenografts; assay: Colo-205 xenograft 10-day exposure study; format: in vivo, mouse; conditions: 75 mg/kg per day, 10 days
[2] = system: patient-derived xenograft (PDX) tumor A-008; assay: Patient-derived xenograft chronic exposure study; format: in vivo, mouse; conditions: 75 mg/kg daily, 31 days; vs vehicle
Experimental: (§1) For in vivo studies, cell-line xenograft tumors were propagated in 6-week old, female athymic nude mice from immortalized cell lines. For HCC-1806 (10×10^6 cells), HCT-116 (5×10^6), and HT29 (10×10^6) cells were injected. Palpable tumors were typically visible within 2-3 weeks. For imaging studies (HCC-1806), tumors were propagated to approximately 500 mm^3. For treatment studies (HCT-116, HT29) tumors were propagated to approximately 200 mm^3 prior to therapy and were randomly assigned into treated and untreated cohorts. For generating the PDX, primary tumor tissue was obtained form a patient at Vanderbilt University Medical Center under an IRB approved protocol. The tumor tissue was genotyped within the VANTAGE core facility. Xenograft was generated as previously described 41. Briefly, tumor tissues were sectioned into approximately 125 cubic millimeter pieces then implanted subcutaneously without further manipulation. […] Tumor volumes were measured manually using calipers every third day and quantified using the formula V=W·L·(H/2).

[3] = system: HEK-293 cells; assay: 3H-labeled amino acid uptake selectivity panel; format: cell-based, human; conditions: 3H-leucine, HEK293
Experimental: Live-cell amino acid uptake assays using HEK293 cells were carried out in 96-well plates (CulturPlate-96, Perkin Elmer). 96-well plates were coated with poly-D-lysine prior to the assay. Cells were plated at a density of 35,000 cells per well 24 h prior to carrying out the assay. Each set of conditions was replicated at least three times, technically and biologically. […] For ASCT2-mediated ^3H-glutamine uptake assays, 5 mM of the system-L inhibitor 2-amino-2-norbornanecarboxylic acid (BCH) was added and the assay buffer was adjusted to pH 6.0. For selectivity studies, no BCH was added and the assay was conducted at pH 7.4. Following the incubation period, the ^3H-glutamine/inhibitor was removed and the cells were washed three times with assay buffer. The cells were then lysed by the addition of 50 μL of 1 M NaOH. For reading, 150 μL of scintillation fluid (Microscint 40, Perkin Elmer) was added and the plates were counted on a scintillation counter (Topcount, Perkin Elmer). Fifty percent inhibitory concentrations (IC50) were calculated using GraphPad Prism version 6 for Mac OS X, GraphPad Software, San Diego Calif. USA, www.graphpad.com. Error is reported as standard deviation (SD).

[4] = system: HT29 (BRAF V600E) cell-line xenografts; assay: HT29 xenograft chronic exposure study; format: in vivo, mouse; conditions: 75 mg/kg per day, 21 days
Experimental: Tissues were sectioned (5 μm thickness) and stained for pS6 (Cell Signaling, #4858) and caspase 3 (Cell Signaling #9661). Tissue slides were imaged at 20× magnification.
as §1

[5] = system: HCC1806 cells; assay: Glutathione and reactive oxygen species in HCC1806 cells; format: cell-based, human
Experimental: Glutathione levels were measured using a commercially available kit (Cayman Chemical 703002) according to the manufacturers protocol. Concurrently ROS was measured in cells using CM-H2DCFDA (Life Technologies C6827) coupled with flow cytometry in accordance with the manufacturers protocol. The assay was replicated replicated at least three times, technically and biologically. Significance was calculated using a t-test in Graphpad Prism. Error is reported as standard deviation (SD).

## Cc1cccc(COc2ccccc2CN(CCC(N)C(=O)O)Cc2ccccc2OCc2cccc(C)c2)c1 (stereo not shown) [Compound V-9302]
[1]
  tumor BRDU uptake: decreased tumor BRDU uptake
  tumor growth: tumor growth arrest
  tumor response markers: elevated LC3B, cleaved caspase 3 and decreased pAKT (Ser473 and Thr308), as well as increased cleaved PARP and decreased and pERK
[2]
  tumor volume: reduction in tumor volume
[3]
  inhibition of leucine uptake: capable of inhibiting the uptake of another ASCT2 substrate, leucine
[4]; IHC
  cleaved caspase 3 in tumor tissue: elevated levels of cleaved caspase 3
  pS6 in tumor tissue: significantly decreased pS6
[4]; vs vehicle
  tumor growth: prevented tumor growth
[5]
  intracellular reactive oxygen species (ROS): corresponding increase in intracellular reactive oxygen species (ROS)
  oxidized (GSSG) and reduced (GSH) glutathione: increased levels of oxidized glutathione (GSSG) at the expense of reduced glutathione (GSH)
